The subject of one series is CYP26A1. Put plainly: RAMBA activity: change in CYP26A1 marker expression by qPCR in keratinocytes incubated with substance plus retinoic acid. An excerpt:
Verschiedene kosmetische Wirkstoffe, die zur Stoffklasse der Azole gerechnet werden können, wurden auf eine mögliche RAMBA-Aktivität hin untersucht. Zu diesem Zweck wurden humane Keratinocyaten für 16 Stunden mit den entsprechenden Substanzen in Kombination mit Retinsäure inkubiert und anschließend mittels qPCR die Expressionsänderung des Markers CYP26A1 verfolgt. Das Enzym CYP26A1 bewirkt die Metabolisierung der Retinsäure und wird durch die Retinsäure selber induziert, wodurch eine Feedbak-Regulation der Retinsäurekonzentration in der Zelle ermöglicht wird. […] Tabelle 1
In general terms: Real-time PCR tracks product formation cycle by cycle.

Another series deals with Kollagen-Neusynthese. Put plainly: Collagen neosynthesis: P1NP secreted into the medium of a fibroblast / 3D epidermis model co-culture. It counts as cell-based. As to conditions: for P1NP: Co-Kultur-System, P1NP in medium, unbehandelt = 107. An excerpt: Ein in der Kosmetik relevanter Parameter für die Anti-Aging-Leistung eines Produktes ist die Induktion der Kollagen-Neusynthese. […] Zum Nachweis der Kollagen-Neusynthese wurde ein Co-Kultur-System verwendet, das aus einer zweidimensionalen Fibroblasten-Kultur besteht, auf die in einem Insert ein dreidimensionales Epidermismodell aufgesetzt wurde. Über das Nährmedium kann ein Stoffaustausch zwischen den Fibroblasten und den Keratinocyten des Epidermismodells erfolgen. […] Als Kontrollen für die Syntheseinduktion wurden Retinsäure und Retinol eingesetzt.

As for `CC1=NN(c2ccccc2)C(=O)C1` [3-Methyl-1-phenyl-5-pyrazolon], in the series with CYP26A1 (0,01% in combination with Retinsäure (RA, 10nM), humane Keratinocyten, 16 Stunden, qPCR, ethanol control = 1,0), the “Rel. Expression CYP26A1” value is 1,3. Also, in the series on CYP26A1 (comparison with Ketokonazol, result in words on Tabelle 1), the RAMBA-Aktivität entry is listed as “in etwa die gleiche RAMBA-Aktivität wie Ketokonazol”. In addition, in the series on CYP26A1 (in combination with Retinsäure, result in words on Tabelle 1), the “Induktion von CYP26A1” value is given as “deutlich vermindert”. This molecule returned a P1NP in the series with Kollagen-Neusynthese (0,01%) of 129 µg/mL. Besides, in the series with Kollagen-Neusynthese (result in words on Tabelle 2), the “Induktion der Kollagensynthese” value is on record as “zeigen eine Induktion der Kollagensynthese”.

Consider `CC1=C(/C=C/C(C)=C/C=C/C(C)=C/CO)C(C)(C)CCC1` [Retinol, reference compound], for which the P1NP in the series on Kollagen-Neusynthese (5µM) was 146 µg/mL.

For the molecule `CC1=C(/C=C/C(C)=C/C=C/C(C)=C/C(=O)O)C(C)(C)CCC1` [Retinsäure, reference compound], the “Rel. Expression CYP26A1” value in the series on CYP26A1 (keratinocytes, 16 h, 0.01 µM) is on record as 37,6. The same molecule returned a P1NP in the series on Kollagen-Neusynthese (5µM) of 200 µg/mL.
